According to PMC6471485, “Selective Inhibitors of a Human Prolyl Hydroxylase (OGFOD1) Involved in Ribosomal Decoding” (Chemistry (Weinheim an Der Bergstrasse, Germany), 2019):
“Also recorded” adds a separate entry of the source.

Tests used:
Tpa1p = Tpa1p (Saccharomyces cerevisiae, UniProt P40032); test: Tpa1p inhibition assay (Figure S12); format: biochemical; conditions: Tpa1p 2 µM (Figure S12)
OGFOD1 = biological target: T1, OGFOD1 (Homo sapiens, UniProt Q8N543); test: 2OG displacement from OGFOD1 by CPMG-edited 1H NMR; format: binding; conditions: 10 µM 2OG, 10 µM OGFOD1, 70 µM inhibitor
T1 sequence (Q8N543 1-542): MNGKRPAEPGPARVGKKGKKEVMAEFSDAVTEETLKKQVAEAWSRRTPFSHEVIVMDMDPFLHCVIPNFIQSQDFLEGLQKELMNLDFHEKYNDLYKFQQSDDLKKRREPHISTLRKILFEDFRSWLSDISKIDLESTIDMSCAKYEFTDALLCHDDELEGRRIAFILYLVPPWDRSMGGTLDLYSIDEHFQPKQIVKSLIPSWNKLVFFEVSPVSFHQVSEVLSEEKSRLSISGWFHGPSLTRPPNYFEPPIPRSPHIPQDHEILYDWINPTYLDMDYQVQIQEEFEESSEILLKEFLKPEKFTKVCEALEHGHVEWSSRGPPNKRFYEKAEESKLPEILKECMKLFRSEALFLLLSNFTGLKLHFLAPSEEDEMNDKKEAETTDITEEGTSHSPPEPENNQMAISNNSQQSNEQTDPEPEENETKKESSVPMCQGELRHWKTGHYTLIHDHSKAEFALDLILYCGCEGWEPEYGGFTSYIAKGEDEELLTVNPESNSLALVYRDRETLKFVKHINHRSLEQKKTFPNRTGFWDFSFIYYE
Experimental: total echo time of 40 ms, a relaxation delay of 2 s, with 256 scans. Water suppression was achieved by presaturation. Samples contained 30 µM apo-PHD2181-426 or OGFOD1, supplemented with 60 µM Zn(II), 30 µM of inhibitor, all in 50 mM Tris-d11, pH 7.5, 10 % D2O, […]
wLOGSY Binding Experiments: For water-ligand observed gradient spectroscopy (wLOGSY) analyses, typical experimental parameters were the following: mixing time, 1 s; relaxation delay, 2 s; number of transients, 512. Solvent excitation was achieved using a 16-ms 180° selective rectangular shape pulse with 1,000 points (Squa100.1000) set at the H2O frequency. […]
Competition Experiments by 2OG Displacement: 2OG displacement assays[12] were performed using CPMG-edited 1H spectra. […] The 2OG methylene resonance at 2.35 ppm was monitored. […]
HeLa cells were cultured in DMEM media supplemented with 10 % fetal bovine serum, 4 mM L-glutamine, 100 U/mL penicillin, and 100 µg/mL streptomycin. […] Cell extracts were analyzed by SDS-PAGE, electroblotted onto PVDF membranes (Millipore) and probed with anti-HIF-1α antibody (clone 54, BD Transduction Laboratories) at 1:1000 dilution for 1 h at room temperature. […] Target proteins were detected with SuperSignal Chemiluminescent […]
Figure S15. Single-concentration qualitative 2OG displacement as monitored by CPMG-edited 1H NMR spectroscopy. […]

MDR1-MDCK = MDR1-MDCK in vitro permeability assay (Cyprotex); format: in vitro ADME; conditions: for cell permeability, in words: MDR1-MDCK; for predicted blood-brain barrier permeability, in words: prediction from MDR1-MDCK assay
Experimental: (§1) supplemented with 80 µM Zn(II), 70 µM of inhibitor, all in 50 mM Tris-d11, pH 7.5, 10 % D2O, […]
(§2) Cell Culture and Immunoblotting
(§3) HeLa cells were cultured in DMEM media supplemented with 10 % fetal bovine serum, 4 mM L-glutamine, 100 U/mL penicillin, and 100 µg/mL streptomycin. Cells were treated with the indicated compounds, prepared in 1% DMSO, for 5 h. Following a PBS buffer rinse, cells were lysed in urea/SDS buffer supplemented with 1 mM dithiothreitol. Cell extracts were analyzed by SDS-PAGE, electroblotted onto PVDF membranes (Millipore) and probed with anti-HIF-1α antibody (clone 54, BD Transduction Laboratories) at 1:1000 dilution for 1 h at room temperature. The HRP-conjugated secondary antibody was then applied at room temperature for 1 h. Target proteins were detected with SuperSignal Chemiluminescent […]
(§4) ADMET in vitro Predictors
(§5) S9 liver microsome stability assays and MDCK-MDR1 efflux assays were carried out for CCT3 and CCT4 by Cyprotex (UK). Additional details are provided later in the Supporting […]
(§6) The solubility and metabolic stability of CCT3 and CCT4 was preliminarily evaluated using a S9 liver microsome assay (Cyprotex, UK). According to the assay, CCT3 and CCT4 had […]
(§7) respectively, and are thus classified as having low clearance (< 8.6 µL/min/mg protein).
(§8) The cell permeability of CCT3 and CCT4 were evaluated using an MDR1-MDCK in vitro […]
(§9) able to penetrate the blood-brain barrier. The permeability coefficients were determined to be

[1] = MDR1-MDCK in vitro permeability assay (Cyprotex); format: in vitro ADME; conditions: dog; MDR1-MDCK; read-out: permeability coefficient
Experimental: as §1, §2, §3, §4, §5, §6, §7, §8, §9

Tpa1p, sequence (P40032 whole entry): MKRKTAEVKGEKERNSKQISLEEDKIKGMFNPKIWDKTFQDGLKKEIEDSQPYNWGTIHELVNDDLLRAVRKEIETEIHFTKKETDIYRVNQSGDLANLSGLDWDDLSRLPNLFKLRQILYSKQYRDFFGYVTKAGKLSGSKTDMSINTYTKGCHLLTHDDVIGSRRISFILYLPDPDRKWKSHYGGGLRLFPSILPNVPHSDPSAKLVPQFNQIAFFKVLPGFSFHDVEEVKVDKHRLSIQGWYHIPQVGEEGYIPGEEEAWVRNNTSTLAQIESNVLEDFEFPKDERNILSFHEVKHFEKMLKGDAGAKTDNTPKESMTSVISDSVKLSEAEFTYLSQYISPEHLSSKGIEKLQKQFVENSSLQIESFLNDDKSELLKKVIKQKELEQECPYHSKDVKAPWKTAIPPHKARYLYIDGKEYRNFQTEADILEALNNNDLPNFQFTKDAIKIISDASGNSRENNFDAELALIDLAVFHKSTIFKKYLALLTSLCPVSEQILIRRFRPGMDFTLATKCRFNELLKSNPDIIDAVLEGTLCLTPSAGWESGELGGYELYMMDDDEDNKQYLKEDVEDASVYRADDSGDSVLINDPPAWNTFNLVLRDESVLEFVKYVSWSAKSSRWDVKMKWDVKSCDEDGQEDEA

Cn1c(O)c(C(=O)CCc2cccs2)c(=O)n(C)c1=O [compound 42]
inhibition of Tpa1p, in words (Tpa1p): potently inhibit
displacement of bound 2OG from OGFOD1, in words (OGFOD1): capable of displacing bound 2OG from the active site of OGFOD1
cell permeability, in words (MDR1-MDCK): good cell permeability properties
predicted blood-brain barrier permeability, in words (MDR1-MDCK; listed as CCT4): brain uptake is likely; also recorded: predicted to be permeable to the blood brain barrier
Papp [1]: 62.7 ×10⁻⁶ cm/s

Cn1c(O)c(C(=O)CCc2ccccc2)c(=O)n(C)c1=O [compound 26]
inhibition of Tpa1p, in words (Tpa1p): potently inhibit
displacement of bound 2OG from OGFOD1, in words (OGFOD1): capable of displacing bound 2OG from the active site of OGFOD1
cell permeability, in words (MDR1-MDCK): good cell permeability properties
predicted blood-brain barrier permeability, in words (MDR1-MDCK; listed as CCT3): brain uptake is likely; also recorded: predicted to be permeable to the blood brain barrier
Papp [1]: 58.5 ×10⁻⁶ cm/s
